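Method: 48-hour compound exposure of cells in 96-well plates, five concentrations, linear interpolation of endpoints. Abbreviation: GI50, concentration required for 50% inhibition of growth.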 Calls of active or inactive are those of the source. No stated cut-off is given here; in the data, active = GI50 up to about 1.1 µM and inactive = higher.
What was measured:
Assay in all cases: NCI tumour cell line growth inhibition, 48 h
ACHN = system: ACHN
U-251 = system: U-251
HT-29 = system: HT-29
SK-MEL-28 = system: SK-MEL-28
EKVX = system: EKVX
OVCAR-8 = system: OVCAR-8
LXFL 529 = system: LXFL 529
SF-268 = system: SF-268
Hs-578T = system: Hs-578T
HCC 2998 = system: HCC 2998
NCI-H23 = system: NCI-H23
HCT-15 = system: HCT-15
HOP-62 = system: HOP-62
NCI-H522 = system: NCI-H522
Malme-3M = system: Malme-3M
PC-3 = system: PC-3
SN12C = system: SN12C
RXF 393 = system: RXF 393
MCF7 = system: MCF7
SK-OV-3 = system: SK-OV-3

Cc1cc2c(Br)cc(Br)c(O)c2nc1C(=O)c1ccccc1
GI50 (ACHN): 20800 nM (inactive)
GI50 (U-251): 14400 nM (inactive)
GI50 (HT-29): 28400 nM (inactive)
GI50 (SK-MEL-28): > 62700 nM (inactive)
GI50 (EKVX): > 51600 nM (inactive)
GI50 (OVCAR-8): 35000 nM (inactive)
GI50 (LXFL 529): 21100 nM (inactive)
GI50 (SF-268): 28300 nM (inactive)
GI50 (Hs-578T): > 100000 nM (inactive)
GI50 (HCC 2998): 18700 nM (inactive)
GI50 (NCI-H23): 13100 nM (inactive)
GI50 (HCT-15): 14000 nM
GI50 (HOP-62): 14000 nM (inactive)
GI50 (NCI-H522): 13500 nM (inactive)
GI50 (Malme-3M): 33200 nM (inactive)
GI50 (PC-3): 13400 nM (inactive)
GI50 (SN12C): 20200 nM (inactive)
GI50 (RXF 393): > 47500 nM (inactive)
GI50 (MCF7): 10100 nM (inactive)

COc1cc2cc(c1Cl)N(C)C(=O)C[C@H](OC(=O)[C@H](C)N(C)C(C)=O)[C@]1(C)O[C@H]1[C@H](C)[C@@H]1C[C@@](O)(NC(=O)O1)[C@H](OC)/C=C/C=C(/C)C2
GI50 (ACHN): 52.6 nM (active)
GI50 (U-251): 15 nM (active)
GI50 (HT-29): 16.4 nM (active)
GI50 (SK-MEL-28): 32.7 nM (active)
GI50 (EKVX): 355 nM (active)
GI50 (OVCAR-8): 21.8 nM (active)
GI50 (LXFL 529): 10 nM (active)
GI50 (SF-268): 17.6 nM (active)
GI50 (Hs-578T): 21.9 nM (active)
GI50 (SK-OV-3): 44.4 nM (active)
GI50 (HCC 2998): 17.5 nM (active)
GI50 (NCI-H23): 20.1 nM (active)
GI50 (HCT-15): 29.2 nM
GI50 (HOP-62): 19.9 nM (active)
GI50 (NCI-H522): 17.3 nM (active)
GI50 (Malme-3M): 35.1 nM (active)
GI50 (PC-3): 0.505 nM (active)
GI50 (SN12C): 20.3 nM (active)
GI50 (RXF 393): 23.6 nM (active)
GI50 (MCF7): 18 nM (active)

CCC1(OC(=O)CNC)C(=O)OCc2c1cc1n(c2=O)Cc2cc3ccccc3nc2-1 (centres undefined)
GI50 (ACHN): < 10 nM (active)
GI50 (U-251): < 10 nM (active)
GI50 (HT-29): 33.5 nM (active)
GI50 (SK-MEL-28): 213 nM (active)
GI50 (EKVX): 127 nM (active)
GI50 (OVCAR-8): 12.6 nM (active)
GI50 (LXFL 529): 207 nM (active)
GI50 (SF-268): < 10 nM (active)
GI50 (Hs-578T): 403 nM (active)
GI50 (SK-OV-3): < 10 nM (active)
GI50 (HCC 2998): 204 nM (active)
GI50 (NCI-H23): < 10 nM (active)
GI50 (HCT-15): 94.2 nM
GI50 (HOP-62): < 10 nM (active)
GI50 (NCI-H522): < 11.6 nM (active)
GI50 (Malme-3M): 54.3 nM (active)
GI50 (PC-3): 26.9 nM (active)
GI50 (SN12C): < 10 nM (active)
GI50 (RXF 393): 18.5 nM (active)
GI50 (MCF7): < 10 nM (active)
